Where two headings read alike, the source gives them in different places. Where only a bound is given, the exact number is not on record here.

Usually Tmax stands for the time from dosing to the highest level.

Series [1] concerns Tb927.8.6290 overexpressing cell lines (A258P). The series can be described thus: Drug sensitivity, line overexpressing Tb927.8.6290 A258P. The note with it: for EC50: Trypanosoma brucei. In kind it is cell-based, T. b. brucei. The procedure: (§1) Drug sensitivity assays were carried out with BSF T. b. brucei “single marker” S427 or BSF T. b. brucei, Lister 427, MiTat 1.2, clone 221a 2T1 cells,[45] cells grown at 37 °C with 5% CO2 in an HMI-9T medium[46] as previously described.[47] 2T1 cells were initially maintained with 1 μg mL^–1 puromycin and 1 μg mL^–1 phleomycin prior to transfection or 2.5 μg mL^–1 hygromycin and 1 μg mL^–1 phleomycin after transfection. Induction of overexpression was achieved by the addition of 1 μg mL^–1 tetracycline to the culture medium.
(§2) The following primers were used to PCR amplify Tb927.8.6290 from genomic DNA isolated from wild-type and 38-resistant trypanosomes 5′-[…]-3′ (PacI site in bold) and 5′-[…]-3′ (BamHI site in bold). The PCR products (1272 bp) were then cloned into the pRPa plasmid.[53] The accuracy of the plasmid constructs was confirmed by in-house Sanger sequencing and then linearized with AscI prior to transfection. The linearized plasmids were introduced into 2T1 T. b. brucei cells following removal of puromycin from the media and selected with 2.5 μg mL^–1 hygromycin and 1 μg mL^–1 phleomycin. Two independent clones were selected for further studies.

For series [2], the system named is Tb927.8.6290 overexpressing cell lines (V241F/A258V). The series is described as follows: Drug sensitivity, line overexpressing Tb927.8.6290 V241F/A258V. In kind it is cell-based, T. b. brucei. The note with it: for EC50: Trypanosoma brucei. The method, then:
as §1, §2

Series [3] is described as follows: Human microsomal intrinsic clearance. The series is classed as in vitro ADME. Conditions: second value of mouse/human cell.
For series [4], the system named is Tb927.8.6290 overexpressing cell lines (WT). The series is described as follows: Drug sensitivity, line overexpressing Tb927.8.6290 WT. The series is classed as cell-based, T. b. brucei. The note with it: for EC50: Trypanosoma brucei. The procedure: as §1, §2
In another series the test system is T. brucei wild-type. The series is described as follows: Drug sensitivity, wild-type parental line. In kind it is cell-based, T. b. brucei. The note with it: Trypanosoma brucei; weighted mean of ≥3 independent experiments. The method, then:
as §1
(§3) Compound-resistant cell lines were generated by subculturing a clone of T. brucei in the continuous presence of 38. Starting at sublethal concentrations, drug concentrations in two independent cultures were increased in a stepwise manner, usually 2-fold. When parasites were able to survive and grow in concentrations of drugs equivalent to more than 10 times the established EC50 value, the resulting cell lines were cloned by limiting dilution in the presence of the compound. Two clones (RES I-II) were selected for further biological study. A standard alkaline lysis protocol was used to isolate genomic DNA from compound-resistant bloodstream T. brucei parasites (∼1 × 10^8). Whole genome sequencing was performed using a DNB-seq next-generation sequencing platform (BGI, Hong Kong). Sequencing reads (150 bp) were aligned to the T. brucei TREU927 genome (v39; tritrypDB) using Bowtie2[48] and Samtools[49] software. […] Samtools and BCFtools[52] (mpileup) were used to call SNP and indels compared with the wild-type starter clone, where the overall quality score (QUAL) was >100. Artemis[50] was used to analyze chromosome and gene copy number variation, as well as visualization of SNPs.

A short description of series [5]: Tolerability / maximum tolerated dose. The note with it: NMRI mice, IP.
A further series concerns T. brucei RES II. The series is described as follows: Drug sensitivity, compound 38-resistant clone RES II. The series is classed as cell-based, T. b. brucei. The procedure: as §1, §3
The nature of series [6]: Equilibrium dialysis, free fraction in plasma. In kind it is in vitro ADME, mouse. The note with it: matrix not given. The procedure:
In brief, a 96-well equilibrium dialysis apparatus was used to determine the free fraction in plasma and the brain (HT Dialysis LLC, Gales Ferry, CT). Isotonic buffer was prepared using 8.69 g of Na2HPO4, 1.9 g of KH2PO4, and 4.11 g of NaCl dissolved in 1 L of Milli-Q water, and the pH was adjusted to 7.4. Artificial CSF was prepared using 3.652 g of NaCl, 93.2 mg of KCl, 119.96 mg of MgCl2, 92.61 mg of CaCl2, and 268 mg of Na2HPO4 heptahydrate dissolved in 0.5 L of water, and the pH was adjusted to 7.4. Membranes [12–14 (plasma) or 6–9 (brain) kDA cutoff] were conditioned in deionized water for 60 min, followed by conditioning in 80:20 deionized water/ethanol for 20 min, and then rinsed in isotonic buffer (plasma) or […] (brain) before use. Female CD1 mouse plasma was defrosted and centrifuged for 10 min at 3000 rpm (Allegra X12-R, Beckman Coulter, USA). The control mouse brain was homogenized in two volumes of artificial CSF in a Covaris S2 acoustic homogenizer. Plasma or brain homogenate was spiked with the test compound (10 μg mL^–1), and 150 μL aliquots (n = 3 replicate determinations) were loaded into the 96-well equilibrium dialysis plate. Dialysis versus 150 μL of isotonic buffer (plasma) or artificial CSF (brain) was carried out for 5 h in a temperature-controlled incubator at 37 °C (Barworld Scientific Ltd, UK) using an orbital microplate shaker at 125 rpm (Barworld Scientific Ltd, UK). At the end of the incubation period, aliquots of plasma/homogenized brain or buffer were transferred to a clean 96-well plate, and the composition in each well was balanced with control fluid, such that the volume of buffer to the matrix was the same. Sample extraction was performed by the addition of 400 μL of acetonitrile containing an appropriate internal standard. Samples were allowed to mix for 1 min and then centrifuged at 3000 rpm in 96-well blocks for 10 min (Allegra X12-R, Beckman Coulter, USA). All samples were analyzed by means of UPLC/MS/MS on a Quattro Premier XE or Micro TQs mass spectrometer (Waters Corporation, USA). The unbound fraction was determined as the ratio of the peak area in the buffer to that in the matrix.
For orientation: In equilibrium dialysis only unbound substance equilibrates across the membrane.

A short description of series [7]: Pharmacokinetics in HRN mice. Conditions: IP, 10 mg kg^–1.
For series [8] the following is noted: mouse, in vivo, ip.

As to `CC(C)(O)CC(=O)c1sc(Nc2ccc(F)c(F)c2)nc1N` [Compound 38, 1-(4-Amino-2-((3,4-difluorophenyl)amino)thiazol-5-yl)-3-hydroxy-3-methylbutan-1-one], the EC50 in series [1] (read-out: EC50, A258P +TET) amounted to 12 ± 0.25 µM; in series [1] (read-out: EC50, A258P –TET), 0.31 ± 0.009 µM; in series [2] (read-out: EC50, V241F/A258V +TET), 12 ± 0.69 µM; in series [2] (read-out: EC50, V241F/A258V –TET) it was 0.27 ± 0.018 µM; in series [4] (read-out: EC50, WT +TET), 10 ± 0.25 µM; in series [4] (read-out: EC50, WT –TET), 0.4 ± 0.025 µM. Further, the EC50 with T. brucei wild-type is 0.31 ± 0.004 µM; in the series on T. brucei RES II (Trypanosoma brucei, read-out: EC50, RES II) it was 8.2 ± 0.49 µM. In series [1] (−TET vs +TET EC50, in brackets), the “fold shift, A258P” value was 40. In addition, the “fold shift, V241F/A258V” value in series [2] (−TET vs +TET EC50, in brackets) is listed as 45. The “CLint (human)” value in series [3] is < 0.5 mL·min/g. Besides, the “fold shift, WT” value in series [4] (−TET vs +TET EC50, in brackets) was 26. Moreover, in series [5], the “maximum dose chosen following maximum tolerated dose study” value turned out to be 100 mg kg^–1. The “fold resistance, RES II” value in the series with T. brucei RES II (relative to the parental wild-type, in brackets) worked out at 26.

On to “(4-Amino-2-(cyclohexylamino)thiazol-5-yl)(2,6-difluorophenyl)methanone [Compound 16]”, for which the “Fu (free fraction)” value in series [6] is 0.03. Also, in series [7], the AUC was 1,000,000 ng mL h^–1 and the Tmax is 30 min. For the same compound, the “exposure in HRN mice relative to NMRI mice” value in [8] was found to be 15 fold.
